Data as given in patent EP1566447A1, “Glimepiride- and insulin-induced glycosylphosphatidylinositol-specific phospholipase C regulation” (priority 2004, dated 2005).
Entries after “also recorded” stand apart in the source; their conditions may differ.

Key:
[1] = system: GPI-PLC of hcDIGs from rat adipocytes; assay: adipocyte GPI-PLC assay (cleavage of AChE, TX-114 partitioning); format: biochemical
Protocol: Biophys. […] Each reaction mixture was subjected to TX-114 partitioning (see below).
After incubation for 1 h on ice, the mixture was layered onto a cushion of 0.4 ml of 0.25 M sucrose and 25 mM Tris/HCl (pH 7.4) on ice.
Cleavage rate was calculated from the amount of hydrophilic AChE and aP activity recovered with the TX-114-depleted phase upon TX-114 partitioning.

rat adipocytes = assay: glucose transport assay; format: cell-based
Protocol: Glucose transport was determined as described in "Müller, G. et al., (1994) J. Cell Biol. 126: 1267-1276" by incubation of 10,000-20,000 washed adipocytes with 2-deoxy-D-[2,6-^3H]glucose at 50 µM final conc. (0.33 µCi/ml) in 50-µl portions for 20 min at 37°C in the absence or presence of 20 µM cytochalasin B.
Table 3: Isolated rat adipocytes were incubated in the presence of methyl-β-cyclodextrin (m-β-CD, 10 mM, 50 min), CBDP (300 µM, electroporation, followed by washing and subsequent incubation for 30 min), PIG41 (10 µM, 15 min), sodium orthovanadate (1 mM, 15 min), trypsin (10 µg/ml, 15 min followed by treatment with 0.5 M NaCl and subsequent washing) and N-ethylmaleimide (1 mM, 5 min followed by addition of DTT). After addition of GPI-2350 (50 µM final conc.) to one half of the adipocyte suspension and further incubation (60 min, 37°C), portions of the cells were assayed for 5'-Nuc activity in the isolated IcDIGs. The increase in 5'-Nuc during the basal incubation was set at 100 arb. units. Other portions of the cells (after 15 min incubation) were assayed for glucose transport which was set at 100 arb. units for the basal incubation. Means ± SD of at least 3 independent cell incubations with activity measurements in triplicate each are given.
Fig. 8: Effect of GPI-2350 on the glimepiride/insulin-induced metabolic activity. Isolated rat adipocytes were treated (5 min, 37°C) without or with GPI-2350 (Panel A, 50 µM; Panel B, increasing conc.; Panel C, 5 µM, 50 µM) and then incubated (15 min, 37°C) in the absence or presence of insulin (Ins, 10 nM) or glimepiride (Gli, 20 µM or increasing conc.) as indicated. The adipocytes were then assayed for glucose transport and isoproterenol-induced lipolysis. The activity is given relative to the absence of GPI-2350 in the control reaction (Panels A, basal) or in the insulin- and glimepiride-stimulated state (Panels B and C, set at 100). Means ± SD of at least 5 independent cell incubations with activity measurements in triplicate each are given.

[2] = stability of the compound in solvents and as a solid; format: physicochemical
Protocol: As starting material, racemic 1,4,5,6-tetra-O-benzyl-myo-inositol (thereinafter: compound 1) was prepared by a procedure as disclosed in "Zhai, H.-X. et al. (1995) Tetrahedron Lett. 36: 7403-7406". Compound 1 was then phosphorylated with dodecylphosphonic dichloride in the presence of triethylamine and dimethyl-aminopyridine to yield tetra-O-benzyl-myo-inositol-1,2-cyclo-dodecylphosphonic acid (thereinafter: compound 2). By catalytic hydrogenation with 10% Pd on charcoal compound 2 was debenzylated to myo-inositol-1,2-cyclo-dodecylphosphonic acid (thereinafter: compound 3 or GPI-2350) as a mixture of diastereomeres. For synthesis of compound 2 (Fig. 1), 1 g (1.8 mmol) of compound 1 was dissolved in 60 ml of methylene chloride and 1 ml of triethylamine, 200 mg dimethyl-aminopyridine and 1 g ([…]) of dodecylphosphonic dichloride were added. This reaction solution was allowed to stand (45 min, room temperature). Then 50 ml of ethyl acetate were added and the mixture was filtrated on silical gel. After concentration of the solvent, the residue was purified by flash chromatography (n-heptane/ethyl acetate, 1/1, by vol.). Yield of compound 2: 580 mg (43 %) of a white amorphous solid. TLC: n-heptane/ethyl acetate (1/1, by vol.), Rf = 0.7. MS: (M + Li)^+ = 761.4, calculated […], M = 754.9. […] MS: (M + Li)^+ = 401.2, calculated C18H35O7P, M = 394.4.

For `CCCCCCCCCCCCP1(=O)O[C@@H]2[C@H](O)[C@@H](O)[C@H](O)[C@@H](O)[C@@H]2O1` (mixture of isomers) [GPI-2350, myo-inositol-1,2-cyclo-dodecylphosphonic acid], the “inhibition % at 1 mM” value ([1]; 1 mM, hcDIGs from rat adipocytes) was 95 ± 11%, the IC50 ([1]; hcDIGs from rat adipocytes, inhibitor 0.05 µM - 1 mM) was 200 to 500 nM and the “lipolytic cleavage toward AChE after pretreatment and washing” value ([1]; hcDIGs treated with 50 µM, reisolated, extensively washed, assayed without inhibitor, data not shown) was “only low lipolytic cleavage”. For the same compound, the “effect on stimulation of glucose transport in response to glimepiride” value (rat adipocytes; 50 µM) was “almost complete blockade; also recorded: lower than control values”, the IC50 (rat adipocytes; Rattus norvegicus, Adipocyte) was 2000 to 5000 nM and the inhibition at 50 µM (rat adipocytes; Rattus norvegicus, Adipocyte, 50 µM, insulin 10 nM, read-out: reduction of insulin stimulation of glucose transport) was ≤ 25%. The “stability in acidic vs. basic solvents” value [2] was “less stable in acidic than basic solvents” and the stability in methanol ([2]; methanol) was “for days”.
